Results published in article PMC5320487, “Intrinsic Peroxidase-like Activity of Ficin” (Scientific Reports, 2017).

System: Ficin
Assay: absorbance at […] nm, steady-state kinetics, Michaelis-Menten fit
Type: biochemical
Conditions: peroxidase-like activity; 0.80 mM H2O2, 20 mM phosphate buffer pH 5.0, 35 °C; ping-pong

Compound `Cc1cc(-c2cc(C)c(N)c(C)c2)cc(C)c1N` [TMB] has a Km of 0.19 ± 0.012 mM.
